Entries after “also recorded” stand apart in the source; their conditions may differ.
Tests used:
[1] = biological target: T1, PPI between PRRSV glycoprotein GP2a and CD163-SRCR5 (Sus scrofa, UniProt Q2VL90); assay: BiFC assay GP2a/SRCR5; assay type: cell-based, porcine CD163; PRRSV VR2332; details: 5 μM; for Average GP2a (relative fluorescence intensity, SRCR5/GP2a BiFC): HEK293T, 24 h after transfection, relative to NC (DMSO) = 1.00, n=3
T1 construct: SRCR5 domain of porcine CD163 receptor was amplified from cDNA of pig cells; expressed in transfected cells; host or cells: HEK293T
Procedure: (§1) HEK293T cells were cultivated in 6-well plates in FP medium and transfected with 1 μg XpBiFC-VN155 (I152L)-SRCR5 and 1 μg pBiFC-VC155-GP2/GP4 using Fugene6. After 4 h, cells were digested with 0.05% Typsin-EDTA (ThermoFisher Scientific, MA, USA)) and passaged to 48-well plates which were coated with EmbryoMax 0.1% Gelatin Solution (Sigma-Aldrich, MO, USA) and preloaded with 5 μM B7 analogues. Fluorescence images were taken at 24 h after transfection and fluorescence intensity was measured by image J.

[2] = biological target: T2, PPI between PRRSV GP4 and CD163-SRCR5 domain (Sus scrofa, UniProt Q2VL90); assay: BiFC assay GP4/SRCR5; assay type: cell-based, porcine CD163; PRRSV VR2332; details: for Average GP4 (relative fluorescence intensity, SRCR5/GP4 BiFC): 5 μM, HEK293T, 24 h after transfection, relative to NC (DMSO), n=3
T2 construct: SRCR5 domain of porcine CD163 receptor was amplified from cDNA of pig cells; expressed in transfected cells; host or cells: HEK293T
Procedure: as §1

[3] = tested on: PRRSV strains NADC30, VR-2332 and Lelystad; assay: PRRSV infection assay in PAMs, qRT-PCR for PRRSV; assay type: cell-based; details: for inhibitory effect against PRRSV infection (in words): 15 μM, PAMs, qRT-PCR; for antiviral potency, SAR comparison (in words): qRT-PCR and titration in infected PAMs, compared with B7, B7-A4 or G7
Procedure: PAMs were cultivated in 12-well plates and infected with PRRSV NADC30 strain or Lelystad strain at MOI=0.05 for 1 h. Cells were then incubated with 15 μM B7 analogues for 24 h at 37° C. RNAs were extracted from the PAMs for quantitative reverse transcription-PCR (qRT-PCR) using RNeasy Mini Kits (Qiagen, MD, USA) and supernatants of cells were collected PRRSV titration assay.
RNAs isolated from infected PAMs were reversely transcribed to cDNA using iScript™ cDNA Synthesis Kit (Bio-Rad Laboratories, CA, USA). Specific qRT-PCR primers for ORF7 gene of PRRSV NADC30 and Lelystad strains, and for porcine GAPDH are shown in the Table S2 qRT-PCR reaction was conducted with SYBR Green Supermix (Bimake, TX, USA) using the ABI 7500 Fast Platform (Thermo Fisher Scientific, MA, USA). GAPDH served as the house keeping gene for normalization.

T2 sequence (Q2VL90 477-577): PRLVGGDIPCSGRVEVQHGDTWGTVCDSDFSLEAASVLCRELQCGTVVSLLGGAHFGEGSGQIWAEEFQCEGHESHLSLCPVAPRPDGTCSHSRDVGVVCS
T1 sequence (Q2VL90 477-577): as above

| Compound | Average GP2a (relative fluorescence intensity, SRCR5/GP2a BiFC) [1] | Average GP4 (relative fluorescence intensity, SRCR5/GP4 BiFC) [2] | inhibitory effect against PRRSV infection (in words) [3] | antiviral potency, SAR comparison (in words) [3] | inhibition of the PPI between SRCR5-VN and GP2a-VC at pH 6.0 (in words) ([1]; pH 6.0) | interference with the PPI between GP4/SRCR5 (in words) [2] |
| --- | --- | --- | --- | --- | --- | --- |
| COc1ccc(Nc2nc3ccccc3nc2NS(=O)(=O)c2ccc(F)cc2C)cc1 [A1] | 0.63 | 0.89 | – | – | – | – |
| COc1ccc(Nc2nc3ccccc3nc2NS(=O)(=O)c2ccc(F)cc2C)cc1Cl [A3] | 0.06 | 0.43 | mild | significantly increased antiviral effect | – | – |
| Cc1ccc(S(=O)(=O)Nc2nc3ccccc3nc2Nc2cccc(S(=O)(=O)N3CCCC3)c2)cc1 [A7] | 0.07 | 0.53 | strong | significant drop of its antiviral potency | – | – |
| O=S(=O)(Nc1nc2ccccc2nc1Nc1cccc(S(=O)(=O)N2CCCC2)c1)c1ccccc1 [C6] | 0.19 | 0.34 | mild | – | – | – |
| Cc1cccc(S(=O)(=O)Nc2nc3ccccc3nc2Nc2cccc(F)c2)c1 [C10] | 0.33 | 0.63 | – | – | – | – |
| Cc1ccccc1S(=O)(=O)Nc1nc2ccccc2nc1Nc1ccc(S(=O)(=O)N2CCOCC2)cc1 [D2] | 0.07 | 0.23 | – | mildly but significantly decreased | – | – |
| COc1ccc(NS(=O)(=O)c2cccc(Nc3nc4ccccc4nc3NS(=O)(=O)c3ccc(F)cc3C)c2)cc1 [E3] | 0.10 | 0.59 | low activity | near complete loss of antiviral-potency | – | – |
| Cc1cc(F)ccc1S(=O)(=O)Nc1nc2ccccc2nc1Nc1cccc(Cl)c1C [E4] | 0.12 | 0.74 | – | – | – | – |
| Cc1cc(F)ccc1S(=O)(=O)Nc1nc2ccccc2nc1Nc1cccc(Cl)c1 [E7] | 0.10 | 0.69 | – | – | – | – |
| Cc1cccc(S(=O)(=O)Nc2nc3ccccc3nc2Nc2cccc(S(=O)(=O)N3CCCCC3)c2)c1 [E10] | 0.06 | 0.06 | – | no change in antiviral potency | – | – |
| Cc1ccccc1Nc1nc2ccccc2nc1NS(=O)(=O)c1ccc(F)cc1C [F7] | 0.30 | 0.96 | – | – | – | – |
| COc1ccccc1NS(=O)(=O)c1cccc(Nc2nc3ccccc3nc2NS(=O)(=O)c2ccc(F)cc2C)c1 [F9] | 0.03 | 0.07 | – | did not change at all | – | – |
| Cc1cc(F)ccc1S(=O)(=O)Nc1nc2ccccc2nc1Nc1cccc(Cl)c1Cl [F12] | 0.31 | 0.63 | strong | significantly increased antiviral effect; also recorded: antiviral potency nearly identical to B7 | inhibit the PPI | does not effectively interfere |
| O=S(=O)(Nc1nc2ccccc2nc1Nc1cccc(S(=O)(=O)N2CCCCC2)c1)c1ccccc1 [G4] | 0.04 | 0.06 | – | significantly decreased its antiviral potency | – | – |
| Cc1ccc(Nc2nc3ccccc3nc2NS(=O)(=O)c2ccc(F)cc2C)cc1 [H1] | 0.24 | 0.94 | – | – | – | – |
